Several values for one entry are separate records, joined by “and”; a condition that tells them apart may be missing. Equal values may be shown once.
What was measured:
[1] = target: T1, purified resistance-associated esterase (E4) (Myzus persicae, UniProt P35501); assay: Esterase interference assay (indirect determination of esterase inhibition); assay type: biochemical; conditions: for Esterase protection (%) after pre-incubation with compound: no esterase = 0%, uninhibited E4 = 100%; for Reduction of esterase protection, comparison in words: E4 esterase interference assay, Examples 13 and 16
T1 construct: 5 g of aphids (stored at −20° C.) were homogenised in 0.02 M phosphate buffer pH 7.0; from tissue; host or cells: whole Myzus persicae aphids, clone 794JZ; homogenate purified over G-25 and DEAE Sepharose Fast Flow
T1 sequence (P35501 24-552): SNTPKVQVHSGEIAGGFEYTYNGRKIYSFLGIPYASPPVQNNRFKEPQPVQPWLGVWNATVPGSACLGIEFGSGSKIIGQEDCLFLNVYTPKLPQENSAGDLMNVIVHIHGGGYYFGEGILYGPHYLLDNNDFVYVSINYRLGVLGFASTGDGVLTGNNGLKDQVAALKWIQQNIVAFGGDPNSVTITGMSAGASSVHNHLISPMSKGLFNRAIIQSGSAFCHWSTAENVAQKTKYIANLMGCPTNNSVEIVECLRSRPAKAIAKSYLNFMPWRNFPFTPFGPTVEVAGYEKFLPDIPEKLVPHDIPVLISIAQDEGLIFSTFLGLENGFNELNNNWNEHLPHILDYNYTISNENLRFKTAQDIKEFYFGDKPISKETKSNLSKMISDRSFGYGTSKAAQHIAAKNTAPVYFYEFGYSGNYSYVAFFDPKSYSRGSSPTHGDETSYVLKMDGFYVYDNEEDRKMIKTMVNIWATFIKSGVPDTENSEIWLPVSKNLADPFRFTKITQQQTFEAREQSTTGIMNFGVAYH
Text: Measuring the in vitro inhibition is not straight forward, as synergists may bind to a site other than the active site.
The esterase used was the well-characterised resistance associated esterase purified from M. persicae, E4, (aphid clone: 794JZ) as per Devonshire (1977) with some modifications(Devonshire A L, The properties of a carboxylesterase from the peach-potato aphid, Myzus persicae (Sulz.) and its role in conferring insecticide resistance. Biochem J 167: 675-683 (1977)). Briefly, 5 g of aphids (stored at −20° C.) were homogenised in 0.02 M phosphate buffer pH 7.0 and centrifuged at 20 000 g for 10 min. The supernatant was passed through a G-25 column using 0.02M Tris/HCl, pH 8.5 buffer. Unretarded fractions containing esterase activity were further chromatographed through DEAF Sepharose Fast Flow (Amersham Biosciences) and eluted with a linear 0-0.35 M NaCl gradient in 500 ml of Tris/HCl as above. Fractions containing carboxylesterase activity in the form of E4 were concentrated, desalted, and buffer exchanged to 0.02 M phosphate pH 7.0 for storage.
Interactions of the purified resistance-associated esterase (E4) with Compound of Example 2, Compound of Example 3, Compound of Example 4, Compound of Example 9 and Compound of Example 11 were performed using the ‘esterase interference assay’, as described by Khot et al., with some modifications. Devonshire A L, The properties of a carboxylesterase from the peach-potato aphid, Myzus persicae (Sulz.) and its role in conferring insecticide resistance. Biochem J 167: 675-683 (1977)). Briefly, stock solutions of novel synergists (3 mM in acetone) were pre-incubated with pure E4, to give a final concentration of 0.03 mM, for 16 h at 4° C. Aliquots (15 μl ) of E4, E4+Compound of Example 2, E4+Compound of Example 3, E4+Compound of Example 4, E4+Compound of Example 9 and E4+Compound of Example 11 were incubated for 1 h with 60 μl of serial dilutions of azamethiphos in 0.02M phosphate buffer, pH 7, in separate wells of a NUNC microplate. Aliquots (25 p1) of house fly head homogenate (source of AChE) were added to each well and incubated for 15 minutes at room temperature. E4 in acetone and buffer only served as the positive and the negative controls respectively. AChE activity was measured at 405 nm using a Tmax kinetic microplate reader (Molecular Devices, Menlo Park, Calif.). Readings were taken automatically for 10 min at 10 s intervals. The rate (mOD min^−1) was calculated by the integrated software, Softmax Pro 4.6. All treatments were performed in triplicate.
No added esterase is giving 0% esterase protection and uninhibited esterase (E4) is giving 100% protection.
The materials and procedure as stated in Example 13, paragraphs 13.1, 13.1.2, 13.1.2.1 and 13.1.2.2. have been used and the following results have been obtained: […]

Myzus persicae = assay: Topical application bioassay on aphid clones: imidacloprid with or without synergist pre-treatment; conditions: for RF, resistance factor (LC50 resistant / LC50 susceptible population): imidacloprid; for LC50 (lethal concentration of imidacloprid to kill 50% of the population): imidacloprid alone, topical, scored 72 h
Description: Aphid clones were reared on Chinese cabbage (Brassica rapa L. var. Pekinensis c.v Wong Bok) (Brassicaceae) leaves held in small plastic box-cages maintained at 18±2° C. with a 16:8 h light:dark photoperiod (Blackman R L, Variation in the photoperiodic response within natural populations of Myzus persicae (Sulzer). Bull Ent Res 60: 533-546 (1971)).
Clone 4106A is a laboratory insecticide-susceptible standard2 . […] Both aphid clones have been established from single parthenogenetic M. persicae females (Foster S P, Denholm I, Thompson R, Poppy G M, Powell W, Reduced response of insecticide-resistant aphids and attraction of parasitoids to alarm pheromone; a potential fitness trade-off. Bull Ent Res 95: 37-46 (2005)).
12.1.2 Topical Application Bioassay with 5191A Aphid Clone Young apterae were transferred to the abaxial surface of Chinese cabbage leaf discs (10 adults per leaf disc, at least 3 replicates per concentration) held on 1% agar in plastic containers (4 cm in diameter). The upper edge of each container was coated with Fluon (Whitford Plastics, UK) to prevent subsequent aphid escape from the leaf surface. After allowing 2 h for the aphids to settle, each was dosed with 0.25 μl of either 1 g L^−1 Compound of Example 3 dissolved in acetone or acetone only. After 4 h aphids were further treated with 0.25 μl imidacloprid in acetone (96% AR) using a
Burkard microapplicator (Burkard, Rickmansworth, UK). Controls were treated with acetone only. Treated aphids were stored at 18±2° C. and 16 h light: 8 h dark photoperiod. All bioassays were scored at the endpoint of 72 h after treatment. Adults incapable of co-ordinated movement (after gentle touching with a paint brush if necessary) were scored as dead. All bioassays were completed in triplicate.

[2] = tested on: pollen beetle, Meligethes aeneus; assay: Discriminating dose bioassay: α-cypermethrin in mixture with synergist; assay type: in vivo; conditions: Brassicogethes aeneus; for mortality at 0.3 ppm: 0.3 ppm α-cypermethrin alone
Description: (§1) Two pyrethroid resistant populations originating from two different areas in Poland ‘Rogalin'and lebork’ were collected in July 2008. A putative susceptible population, UK population, was also collected in July 2008 in Hertfordshire, UK. All populations were collected from oilseed rape contained adults only and were kept at room temperature before assays were performed.
Bioassays incorporating the compounds (Compound of Example 2 and Compound of Example 3) dissolved in acetone, were carried out using a diagnostic concentration of α-cypermethrin derived from the above full dose response bioassays in a mixture of 0.01 g L^−1 of the compounds. The concentration of α-cypermethrin used for the discriminating dose bioassays was 0.3 ppm α-cypermethrin for the two polish populations, Rogalin and Lebork and 0.03 ppm α-cypermethrin for UK population. Vials treated with the compounds only, dissolved in acetone and acetone only were used as controls. Ten to 15 replicates were used for each treatment depending on insect numbers within the population. Compounds concentrations chosen conferred no mortality in preliminary bioassays.
(§2) Treated vials including the pollen beetles were stored in constant environment facilities at 18±2° C. and 16L: 8D. All bioassays were scored at an endpoint of 24 h after exposure to the insecticide. Insects incapable of coordinated movement (after gentle touching with a pencil brush if necessary) were scored as dead.

[3] = tested on: pollen beetle, Meligethes aeneus; assay: Full dose response bioassay (α-cypermethrin), coated glass vials, IRAC method no 11; assay type: in vivo; conditions: for LC50 (lethal concentration of α-cypermethrin to kill 50% of the population): 24 h
Description: as §1
To characterise the response of the 3 above pollen beetle populations against α-cypermethrin full dose response bioassays were carried out. The bioassay method used was based on the method recommended by the Insecticide Resistance Action Committee (IRAC method no 11). Briefly, glass vials (5.7 cm height and 2.3 cm diameter) were coated with 0.5 ml of a serial dilutions of insecticide, dissolved in acetone, (α-cypermethrin) and rolled upon a blood-roller (Luckham Multimix Major, Denley Instruments Ltd) at room temperature until the solutions had completely evaporated. Five to 20 non-sexed adult pollen beetles were placed into a vial for each replicate and the top loosely closed with a screw-cap. Three replicates were used at each insecticide concentration, 7 concentrations in all. Vials treated with acetone only were used as controls.
as §2

[4] = Table 2 (Example 13), 0.03 mM compound pre-incubated with E4 16 h at 4° C.
[5] = second 'TABLE 3' (Example 16), procedure as Example 13

C#CCOc1ccc2c(c1)OCO2 [Example 1, 5-(propargyloxy)-benzo[1,3]dioxole, reference compound]
Esterase protection (%) after pre-incubation with compound [1, 4]: 63.9%
Esterase protection (%) after pre-incubation with compound [1, 5]: 63.90%

C#CCOc1cc2c(cc1CCC)OCO2 [Example 4, 5-(propargyloxy)-6-propyl-benzo[1.3]dioxole]
Reduction of esterase protection, comparison in words [1]: worse activity than the compound of Example 3
Esterase protection (%) after pre-incubation with compound [1, 4]: 2.06%
Esterase protection (%) after pre-incubation with compound [1, 5]: 2.06%

C#CCOc1cc(OC)c(OC)cc1CCC [Example 7, 1-(propargyloxy)-6-propyl-3,4-dimethoxybenzene]
Esterase protection (%) after pre-incubation with compound [1, 5]: 15.17%

CC#CCOc1cc(OC)c(OC)cc1CCC [Example 8, 1-(but-2-ynyloxy)-6-propyl-3,4-dimethoxybenzene]
Reduction of esterase protection, comparison in words [1]: better activity than compounds 4, 7, respectively
Esterase protection (%) after pre-incubation with compound [1, 5]: 5.09%

CC#CCOc1cc2c(cc1COCCOCCOCCCC)OCO2 [Example 9, 5-[2-(2-butoxyethoxy)-ethoxy]methyl-6-(but-2-ynyloxy)-benzo[1.3]dioxole]
Esterase protection (%) after pre-incubation with compound [1, 4]: 2.96%

CC#CCOc1cc2c(cc1CCC)CCO2 [Example 11, 6-(but-2-ynyloxy)-5-propyl-2,3-dihydrobenzofuran]
Esterase protection (%) after pre-incubation with compound [1, 4]: −1.17%

O=[N+]([O-])NC1=NCCN1Cc1ccc(Cl)nc1 [imidacloprid]
RF, resistance factor (LC50 resistant / LC50 susceptible population) (Myzus persicae; aphid clone 4106A (susceptible reference)): 1
LC50 (lethal concentration of imidacloprid to kill 50% of the population) (Myzus persicae; aphid clone 4106A (susceptible, S)): 1.6 ppm
RF, resistance factor (LC50 resistant / LC50 susceptible population) (Myzus persicae; aphid clone 5191A versus 4106A): 56.5
LC50 (lethal concentration of imidacloprid to kill 50% of the population) (Myzus persicae; aphid clone 5191A, FE4(R3) resistant): 90.5 ppm

CC1(C)C(C=C(Cl)Cl)C1C(=O)OC(C#N)c1cccc(Oc2ccccc2)c1 (stereo not drawn) [α-cypermethrin]
mortality at 0.3 ppm ([2]; 24 h, Lebork): 4.9%
mortality at 0.3 ppm ([2]; 24 h, Rogalin): 2.78%
mortality at 0.03 ppm ([2]; 24 h, UK population, 0.03 ppm α-cypermethrin alone): 13.6%
mortality at 0.3 ppm ([2]; Rogalin and Lebork): ~5%
LC50 (lethal concentration of α-cypermethrin to kill 50% of the population) ([3]; Lebork population (pyrethroid resistant, Poland)): 95.0 ηg/cm^2
RF, resistance factor (LC50 resistant / LC50 susceptible population) ([3]; Lebork versus UK population): 44
LC50 (lethal concentration of α-cypermethrin to kill 50% of the population) ([3]; Rogalin population (pyrethroid resistant, Poland)): 65.0 ηg/cm^2
RF, resistance factor (LC50 resistant / LC50 susceptible population) ([3]; Rogalin versus UK population): 23 and 23.21
LC50 (lethal concentration of α-cypermethrin to kill 50% of the population) ([3]; UK population (putative susceptible)): 2.80 ηg/cm^2
RF, resistance factor (LC50 resistant / LC50 susceptible population) ([3]; UK population (reference)): 1

Reference: patent US8809389B2, “Substituted alkynyl phenoxy compounds as new synergists in pesticidal compositions” (Endura S.p.A., priority 2009, dated 2014)
